The results in this text go back to ChEMBL document CHEMBL4433241, “Potential of ROCK Inhibitors as Treatment for Cardiovascular Diseases, Cancer, and More” (ACS Med Chem Lett, 2019).

The structures appear in SMILES notation.

For the experiment, the target named is Rho-associated protein kinase 2 (Homo sapiens, UniProt O75116). The experiment can be described thus: Inhibition of ROCK2 (unknown origin) using FITC-AHA-AKRRRLSSLRA-OH substrate and ATP.
Sequence of Rho-associated protein kinase 2 (O75116 whole entry): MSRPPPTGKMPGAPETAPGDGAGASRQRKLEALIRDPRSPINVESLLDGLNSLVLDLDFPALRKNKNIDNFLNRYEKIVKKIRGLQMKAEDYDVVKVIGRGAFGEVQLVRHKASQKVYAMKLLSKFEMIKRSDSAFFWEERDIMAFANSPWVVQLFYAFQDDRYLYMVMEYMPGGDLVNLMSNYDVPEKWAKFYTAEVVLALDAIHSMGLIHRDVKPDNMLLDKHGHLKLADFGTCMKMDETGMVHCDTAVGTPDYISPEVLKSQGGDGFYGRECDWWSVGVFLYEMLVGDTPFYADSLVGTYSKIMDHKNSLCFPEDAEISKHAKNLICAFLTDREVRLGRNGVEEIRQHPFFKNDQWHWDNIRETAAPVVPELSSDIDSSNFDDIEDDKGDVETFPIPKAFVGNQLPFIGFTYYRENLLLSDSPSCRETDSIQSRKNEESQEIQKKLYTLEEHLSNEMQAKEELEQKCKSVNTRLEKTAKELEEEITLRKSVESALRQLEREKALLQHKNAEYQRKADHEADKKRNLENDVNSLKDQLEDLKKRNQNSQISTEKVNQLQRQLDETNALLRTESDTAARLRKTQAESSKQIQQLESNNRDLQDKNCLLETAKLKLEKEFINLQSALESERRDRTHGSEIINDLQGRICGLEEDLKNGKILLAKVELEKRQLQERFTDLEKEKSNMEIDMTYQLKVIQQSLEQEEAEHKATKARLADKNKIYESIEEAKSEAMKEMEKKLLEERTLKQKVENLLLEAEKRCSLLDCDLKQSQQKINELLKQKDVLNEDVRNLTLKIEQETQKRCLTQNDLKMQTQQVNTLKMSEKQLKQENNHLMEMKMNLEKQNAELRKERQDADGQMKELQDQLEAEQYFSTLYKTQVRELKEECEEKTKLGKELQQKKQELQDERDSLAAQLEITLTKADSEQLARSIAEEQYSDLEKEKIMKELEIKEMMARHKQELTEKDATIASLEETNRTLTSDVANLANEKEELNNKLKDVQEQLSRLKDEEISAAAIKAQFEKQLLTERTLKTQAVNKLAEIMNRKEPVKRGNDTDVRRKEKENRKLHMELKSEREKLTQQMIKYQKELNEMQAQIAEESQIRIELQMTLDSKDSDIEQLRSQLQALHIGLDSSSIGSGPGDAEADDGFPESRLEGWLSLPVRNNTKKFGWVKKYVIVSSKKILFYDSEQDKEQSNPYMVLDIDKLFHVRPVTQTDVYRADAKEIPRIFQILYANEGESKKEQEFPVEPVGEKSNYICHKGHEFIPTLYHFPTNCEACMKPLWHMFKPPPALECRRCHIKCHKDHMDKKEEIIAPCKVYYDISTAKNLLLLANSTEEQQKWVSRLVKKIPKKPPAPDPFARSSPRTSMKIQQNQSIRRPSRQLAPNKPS
Consider `COc1cnc(NC2CC3(C2)CC(Oc2ncccc2C(N)=O)C3)c2cc(Cl)ccc12` (stereo not given), for which the IC50 (as a rule, the concentration that gives 50% inhibition) was determined as 15 nM.
`N#Cc1cnc(NC2CC3(C2)CC(Oc2ncccc2C(N)=O)C3)nc1` (stereo not given) displayed an IC50 of 1510 nM.
In the case of `NC(=O)c1cccnc1OC1CC2(CC(Nc3nc4c(Cl)cccc4s3)C2)C1` (stereo not given) it was 76 nM.
For `COc1ccc2ncnc(NC3CC4(C3)CC(Oc3ncccc3C(N)=O)C4)c2c1` (stereo not given), the IC50 came to 62 nM.
Take `COc1ccc2c(NC3CC4(C3)CC(Oc3ncccc3C(N)=O)C4)nccc2c1` (stereo not given): the IC50 was found to be 17 nM.
